ChEMBL document CHEMBL1201862, “PubChem BioAssay data set” (2004)
Counter-ions that a name gives are not always drawn. Activity calls are given as the source filed them.

Key:
[1] = NIH-3T3 fibroblast cytotoxicity, dose response, cytotoxicity control, cell-based, fluorescence, Alamar Blue, secondary assay (AID 2327); assay type: functional;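 also: NIH-3T3 mouse fibroblasts cultured with fluconazole at 8 µg/mL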
[2] = fluconazole-exposed Candida albicans growth modulators – fluorescence, retest, confirmation (AID 2467); assay type: functional, cell-based
[3] = target: T1, Corticotropin-releasing factor receptor 2/Corticotropin-releasing factor-binding protein (Homo sapiens, UniProt P24387+Q13324); assay: activators of CRF receptor 2 with binding protein – uHTS hits, confirmation (AID 602473); assay type: functional; settings: read-out: EC50_Mean
T1 sequence (Q13324 whole entry): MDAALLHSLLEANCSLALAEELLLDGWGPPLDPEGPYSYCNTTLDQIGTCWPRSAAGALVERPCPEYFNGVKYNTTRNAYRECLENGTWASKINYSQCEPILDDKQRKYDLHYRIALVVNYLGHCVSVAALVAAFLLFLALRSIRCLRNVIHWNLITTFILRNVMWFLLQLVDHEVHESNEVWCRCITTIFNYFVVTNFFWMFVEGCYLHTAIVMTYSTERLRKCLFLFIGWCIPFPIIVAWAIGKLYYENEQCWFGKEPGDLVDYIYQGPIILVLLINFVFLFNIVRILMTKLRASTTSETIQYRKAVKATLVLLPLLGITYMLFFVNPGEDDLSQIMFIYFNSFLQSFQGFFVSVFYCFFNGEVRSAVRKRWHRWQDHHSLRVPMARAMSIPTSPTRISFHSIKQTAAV
T1 sequence (P24387 whole entry): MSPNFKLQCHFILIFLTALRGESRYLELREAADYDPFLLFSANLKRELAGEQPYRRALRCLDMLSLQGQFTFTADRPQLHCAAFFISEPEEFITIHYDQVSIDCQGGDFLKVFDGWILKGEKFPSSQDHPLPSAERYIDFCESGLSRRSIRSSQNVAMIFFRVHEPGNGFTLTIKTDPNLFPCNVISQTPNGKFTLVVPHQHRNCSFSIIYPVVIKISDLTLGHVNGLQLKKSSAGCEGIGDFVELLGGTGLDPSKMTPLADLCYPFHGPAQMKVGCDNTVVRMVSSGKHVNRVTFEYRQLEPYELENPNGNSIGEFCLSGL

Fatty acid synthase [4] = target: T2, Fatty acid synthase (Homo sapiens, UniProt P49327); assay: inhibition of human FAS-TE enzyme activity – biochemical, endpoint fluorescence intensity, uHTS hits, dose response (AID 624327); assay type: functional;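 also: fluorescence from hydrolysis of an O-methyl fluorescein acyl ester substrate by the enzyme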
T2 sequence (P49327 whole entry): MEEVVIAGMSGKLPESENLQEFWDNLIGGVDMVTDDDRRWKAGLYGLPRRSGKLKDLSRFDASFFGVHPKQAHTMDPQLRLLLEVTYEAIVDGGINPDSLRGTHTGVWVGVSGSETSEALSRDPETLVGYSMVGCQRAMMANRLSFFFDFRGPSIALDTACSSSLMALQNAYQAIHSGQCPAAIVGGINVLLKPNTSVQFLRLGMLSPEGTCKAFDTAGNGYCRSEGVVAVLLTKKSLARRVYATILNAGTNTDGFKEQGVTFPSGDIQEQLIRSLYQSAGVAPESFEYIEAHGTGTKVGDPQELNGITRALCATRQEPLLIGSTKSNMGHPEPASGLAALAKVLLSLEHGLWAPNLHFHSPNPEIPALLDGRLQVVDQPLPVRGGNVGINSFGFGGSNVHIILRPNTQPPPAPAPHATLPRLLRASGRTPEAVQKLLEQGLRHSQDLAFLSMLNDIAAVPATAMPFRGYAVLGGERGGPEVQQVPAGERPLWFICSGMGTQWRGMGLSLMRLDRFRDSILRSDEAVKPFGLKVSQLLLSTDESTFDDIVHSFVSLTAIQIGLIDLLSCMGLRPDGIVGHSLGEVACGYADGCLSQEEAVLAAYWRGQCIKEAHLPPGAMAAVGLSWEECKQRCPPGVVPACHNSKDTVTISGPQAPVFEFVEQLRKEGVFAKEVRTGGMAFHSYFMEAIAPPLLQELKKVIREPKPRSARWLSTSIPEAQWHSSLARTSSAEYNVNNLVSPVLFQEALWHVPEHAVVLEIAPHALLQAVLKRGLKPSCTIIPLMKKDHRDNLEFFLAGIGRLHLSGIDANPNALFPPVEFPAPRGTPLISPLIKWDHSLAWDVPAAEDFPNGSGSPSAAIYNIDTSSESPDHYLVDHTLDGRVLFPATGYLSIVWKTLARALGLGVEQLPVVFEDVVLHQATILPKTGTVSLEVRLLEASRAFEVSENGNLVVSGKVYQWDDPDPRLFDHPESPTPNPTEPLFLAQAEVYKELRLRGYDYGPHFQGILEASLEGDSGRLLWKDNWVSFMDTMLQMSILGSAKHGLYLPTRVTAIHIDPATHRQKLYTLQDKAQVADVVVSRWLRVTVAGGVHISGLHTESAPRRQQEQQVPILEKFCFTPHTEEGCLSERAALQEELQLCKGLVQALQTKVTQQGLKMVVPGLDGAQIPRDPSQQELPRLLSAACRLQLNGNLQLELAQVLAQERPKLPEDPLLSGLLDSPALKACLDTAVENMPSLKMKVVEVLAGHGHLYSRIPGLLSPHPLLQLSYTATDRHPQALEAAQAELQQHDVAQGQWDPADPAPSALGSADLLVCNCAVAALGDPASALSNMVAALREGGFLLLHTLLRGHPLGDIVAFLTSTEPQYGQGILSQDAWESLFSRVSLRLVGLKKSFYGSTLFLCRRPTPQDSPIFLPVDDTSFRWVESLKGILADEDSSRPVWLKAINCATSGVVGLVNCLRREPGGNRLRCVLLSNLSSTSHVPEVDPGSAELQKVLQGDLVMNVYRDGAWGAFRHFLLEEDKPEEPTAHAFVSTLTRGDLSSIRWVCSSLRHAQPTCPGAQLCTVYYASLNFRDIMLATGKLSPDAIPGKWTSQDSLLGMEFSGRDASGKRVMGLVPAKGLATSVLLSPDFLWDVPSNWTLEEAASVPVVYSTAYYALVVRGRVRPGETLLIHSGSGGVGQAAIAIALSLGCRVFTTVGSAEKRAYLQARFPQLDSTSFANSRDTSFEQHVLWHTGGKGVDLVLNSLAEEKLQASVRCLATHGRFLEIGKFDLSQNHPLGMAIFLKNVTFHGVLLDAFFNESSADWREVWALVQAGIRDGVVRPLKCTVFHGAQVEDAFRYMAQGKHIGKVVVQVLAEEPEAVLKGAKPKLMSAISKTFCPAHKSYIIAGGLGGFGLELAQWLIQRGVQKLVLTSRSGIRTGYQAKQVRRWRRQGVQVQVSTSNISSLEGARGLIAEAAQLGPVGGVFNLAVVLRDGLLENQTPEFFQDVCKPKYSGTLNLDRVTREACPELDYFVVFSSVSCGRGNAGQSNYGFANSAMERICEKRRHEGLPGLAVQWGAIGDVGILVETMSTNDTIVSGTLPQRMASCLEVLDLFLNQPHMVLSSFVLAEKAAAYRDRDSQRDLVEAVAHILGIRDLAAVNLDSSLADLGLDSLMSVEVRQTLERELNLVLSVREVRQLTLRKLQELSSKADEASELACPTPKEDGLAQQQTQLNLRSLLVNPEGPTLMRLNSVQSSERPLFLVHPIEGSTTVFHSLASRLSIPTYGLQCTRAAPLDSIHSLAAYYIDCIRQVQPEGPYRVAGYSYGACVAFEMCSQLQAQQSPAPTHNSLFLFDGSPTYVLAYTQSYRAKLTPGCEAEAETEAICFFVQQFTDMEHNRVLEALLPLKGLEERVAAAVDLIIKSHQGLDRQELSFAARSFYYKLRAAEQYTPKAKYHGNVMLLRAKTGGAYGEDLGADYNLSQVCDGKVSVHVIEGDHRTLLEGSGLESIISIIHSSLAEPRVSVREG

Fatty acid synthase [5] = target: T2, Fatty acid synthase; assay: inhibition of human FAS-TE enzyme activity – biochemical, kinetic fluorescence intensity, dose response (AID 624326); assay type: functional;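 also: rate of fluorescence rise from hydrolysis of a fluorogenic O-methyl fluorescein ester substrate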
P388/ADR = assay: cells; assay type: functional; settings: Mus musculus
SN12K1 = assay: cells; assay type: functional; settings: Homo sapiens
P388 = assay: cells; assay type: functional; settings: Mus musculus
BJ [6] = assay: BJ-TERT fibroblast viability loss – cell-based, RAS-independent, luminescence, dose response (AID 1933); assay type: functional; settings: Homo sapiens
BJ [7] = assay: cells; assay type: functional, cell-based; settings: Homo sapiens
BJ [8] = assay: BJ-TERT-LT-ST fibroblast viability loss – cell-based, RAS-independent, luminescence, dose response (AID 1935); assay type: functional; settings: Homo sapiens;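 also: BJ fibroblasts immortalized with TERT plus LT and ST oncogenes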
[9] = DRD fibroblast viability loss – cell-based, non-viral oncogenic, luminescence, dose response (AID 1934); assay type: functional; settings: Homo sapiens
[10] = target: T3, Ubiquitin-conjugating enzyme E2 N (Homo sapiens, UniProt P61088); assay type: functional;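 also: Dose-response confirmation in a TR-FRET assay detecting UBC13-driven polyubiquitin chain formation, inhibition measured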
T3 sequence (P61088 whole entry): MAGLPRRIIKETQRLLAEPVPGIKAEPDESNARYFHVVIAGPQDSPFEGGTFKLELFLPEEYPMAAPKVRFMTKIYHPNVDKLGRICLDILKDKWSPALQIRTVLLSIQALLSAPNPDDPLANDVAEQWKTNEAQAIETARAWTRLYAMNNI

INS1 = assay: INS-1E survival protection against cytokine death – cell-based, luminescence, retest, dose response (AID 449756); assay type: functional; settings: Rattus norvegicus;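 also: cell death triggered by IL-1 beta plus TNF-alpha plus IFN-gamma mixture; protective hits raise ATP signal compared with cytokine alone wells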

Row | SMILES | GI50 (P388/ADR) | GI50 (SN12K1) | GI50 (P388) | other results
1 | COc1cc2ccccc2cc1C(=O)N(CCN(C)C)c1nc2ccc(Br)cc2s1 |  |  |  | EC50 [1]: 101 µM (active); EC50 [2]: > 38 µM (not active)
2 | CCCNC(=O)/C(=C/c1cn(S(=O)(=O)N(C)C)c2ccccc12)NC(=O)c1ccc(OC)cc1 |  |  |  | EC50 [3]: 4.01 µM (active); IC50 (Fatty acid synthase [4]): 4.86 µM (active); IC50 (Fatty acid synthase [5]): 6.75 µM (active)
3 | CCCCS(=N)(=O)CC[C@H](N)C(=O)O (stereo partly specified) [BUTHIONINE SULFOXIME] | > 5000 µM (inactive) | 3720 µM (inactive) | 2250 µM (inactive) | 
4 | CN(C)CCCn1cnc2c(c1=N)C(c1ccccc1)c1ccc3ccccc3c1O2 (stereo unspecified) |  |  |  | EC50 (BJ [6]): 5.45 µM (inconclusive); EC50 (BJ [7]): 8.21 µM (active); EC50 (BJ [8]): 4.25 µM (active); EC50 [9]: 5.25 µM (active); IC50 [10]: > 20 µM (inactive); AC50 (INS1): 6.49 µM (active)
5 | Cc1ccc(C2COc3cc(O)c(O)cc3C2)cc1 (stereo unspecified) | 1.79 µM (inactive) | 13.2 µM (inactive) | 1.75 µM (inactive) | 
6 | N[C@@H](Cc1ccc(N(CCCl)CCCl)cc1)C(=O)O [MELPHALAN HYDROCHLORIDE] | 5.71 µM (inactive) | 26.5 µM (inactive) | 2.39 µM (inactive) | 
7 | CC(C)(C)c1ccc(C(=O)NCCC(=O)Nc2cc(Cl)ccc2N2CCOCC2)cc1 |  |  |  | IC50 (Fatty acid synthase [4]): 9.59 µM (active); IC50 (Fatty acid synthase [5]): 4.54 µM (active)
8 | CC(C)NC(=O)OCc1c(CO)c2c(n1C)-c1ccccc1CC2 | 6.9 µM (inactive) | 18.1 µM (inactive) | 7.59 µM (inactive) | 
9 | CCCCCCCCCCCCCCCCSCC(COC)COP(=O)([O-])OCC[N+](C)(C)C (stereo unspecified) [ILMOFOSINE] | 4.01 µM (inactive) | 11.7 µM (inactive) | 2.36 µM (inactive) | 
10 | N#Cc1cc2sc3nnc(-c4ccncc4)n3c2cc1C#N |  |  |  | IC50 (Fatty acid synthase [4]): 3.82 µM (active); IC50 (Fatty acid synthase [5]): 4.69 µM (active)
11 | O=NN(CCCl)C(=O)N[C@H]1CC[C@@H](O)CC1 | 3.41 µM (inactive) | 28.2 µM (inactive) | 3.76 µM (inactive) | 
12 | COc1cc(/C=C/c2ccc(OC)c(OC)c2)oc(=O)c1 | > 183 µM (inactive) | > 183 µM (inactive) | 96.4 µM (inactive) | 
